Assay results reported in US10508104B2, “6-hydroxy-5-(phenyl/heteroarylsulfonyl)pyrimidin-4(1H)-one as APJ agonists” (Bristol-Myers Squibb Company, priority 2016, dated 2019).

biological target: human APJ receptor (Homo sapiens (Human), UniProt P35414); test: Intracellular cAMP accumulation assay (APJ hcAMP, HTRF); assay type: cell-based; details: HEK293 cells stably expressing human APJ receptor; inhibition of forskolin-mediated cAMP production; read-out: Human APJ cAMP EC50 Potency range
Procedure, shortened: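 HEK293 cells stably expressing human APJ, 5,000 per well, incubated 30 min at rt with compound, […] and 2 μM forskolin. cAMP measured by HTRF against a cAMP standard curve as inhibition of forskolin-driven production. EC50 from variable-slope sigmoidal fit.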

human APJ receptor, sequence (P35414 whole entry): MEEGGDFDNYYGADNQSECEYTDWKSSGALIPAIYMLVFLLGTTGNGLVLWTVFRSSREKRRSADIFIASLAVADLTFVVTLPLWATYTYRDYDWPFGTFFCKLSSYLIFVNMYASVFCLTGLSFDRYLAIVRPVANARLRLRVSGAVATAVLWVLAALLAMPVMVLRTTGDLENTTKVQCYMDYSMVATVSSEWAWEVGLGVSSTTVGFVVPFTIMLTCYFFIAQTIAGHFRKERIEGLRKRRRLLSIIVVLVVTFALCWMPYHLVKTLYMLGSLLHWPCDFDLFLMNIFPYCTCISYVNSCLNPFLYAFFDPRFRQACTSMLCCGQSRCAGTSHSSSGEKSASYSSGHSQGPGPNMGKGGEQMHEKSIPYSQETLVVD

Structure (SMILES)	EC50
Cc1nc(F)ccc1-c1ccc(S(=O)(=O)c2c(O)n([C@H](c3cccc(C#N)c3)C3CC3)c(CC3CC3)nc2=O)cc1 [Example 499, 3-[(S)-cyclopropyl[2-(cycIopropylmethyl)-5-[4-(6-fluoro-2-methylpyridin-3-yl)benzenesulfonyl]-6-hydroxy-4-oxo-1,4-dihydropyrimidin-1-yl]methyl]benzonitrile]	0.01 to 10 nM
CCCCc1nc(=O)c(S(=O)(=O)c2ccc(-c3ccccc3C(=O)N(C)C)cc2)c(O)n1[C@@H](CC)c1cccc(C#N)c1 [Example 513, 4′-({2-butyl-1-[(1S)-1-(3-cyanophenyl)propyl]-6-hydroxy-4-oxo-1,4-dihydropyrimidin-5-yl}sulfonyl)-N,N-dimethyl-[1,1′-biphenyl]-2-carboxamide]	0.01 to 10 nM
CCCCc1nc(=O)c(S(=O)(=O)c2ccc(-c3cccnc3C)cc2)c(O)n1[C@@H]1CCc2ccc(C#N)cc21 [Example 547, (3R)-3-{2-butyl-6-hydroxy-5-[4-(2-methylpyridin-3-yl)benzenesulfonyl]-4-oxo-1,4-dihydropyrimidin-1-yl}-2,3-dihydro-1H-indene-5-carbonitrile]	10 to 100 nM
CCCCc1nc(=O)c(S(=O)(=O)c2ccc(-c3ccc(F)nc3C)cc2)c(O)n1[C@@H](CC)c1ccc(C#N)c(F)c1 [Example 519, 4-[(1S)-1-{2-butyl-5-[4-(6-fluoro-2-methylpyridin-3-yl)benzenesulfonyl]-6-hydroxy-4-oxo-1,4-dihydropyrimidin-1-yl}propyl]-2-fluorobenzonitrile]	0.01 to 10 nM
COC[C@@H](c1cc(F)cc(F)c1)n1c(COC(C)C)nc(=O)c(S(=O)(=O)c2ccc(-c3ccncc3C)cc2)c1O [Example 377, 1-[(1R)-1-(3,5-difluorophenyl)-2-methoxyethyl]-6-hydroxy-5-[4-(3-methylpyridin-4-yl)benzenesulfonyl]-2-[(propan-2-yloxy)methyl]-1,4-dihydropyrimidin-4-one]	0.01 to 10 nM
CCCCc1nc(=O)c(S(=O)(=O)c2ccc(-c3cccc(C(=O)NC)c3)cc2)c(O)n1[C@@H]1CCc2ccc(C#N)cc21 [Example 543, 4′-({2-butyl-1-[(1R)-6-cyano-2,3-dihydro-1H-inden-1-yl]-6-hydroxy-4-oxo-1,4-dihydropyrimidin-5-yl}sulfonyl)-N-methyl-[1,1′-biphenyl]-3-carboxamide]	10 to 100 nM
CCCCc1nc(=O)c(S(=O)(=O)c2ccc(-c3ccc(F)nc3F)cc2)c(O)n1[C@@H](CC)c1cccc(C#N)c1 [Example 503, 3-[(1S)-1-{2-butyl-5-[4-(2,6-difluoropyridin-3-yl)benzenesulfonyl]-6-hydroxy-4-oxo-1,4-dihydropyrimidin-1-yl}propyl]benzonitrile]	0.01 to 10 nM
COc1cccc(OC)c1-n1c(-c2ccc(F)cc2)nc(=O)c(S(=O)(=O)c2ccc(-n3cc(Cl)ccc3=O)cc2)c1O [Example 275, 5-((4-(5-Chloro-2-oxopyridin-1 (2H)-yl)phenyl)sulfonyl)-1-(2,6-dimethoxyphenyl)-2-(4-fluorophenyl)-6-hydroxypyrimidin-4(1H)-one]	0.01 to 10 nM
CCCCc1nc(=O)c(S(=O)(=O)c2ccc(-c3ccc(F)nc3C)cc2)c(O)n1[C@H](c1cccc(C#N)c1)C(C)C [Example 452, 3-[(1S)-1-{2-butyl-5-[4-(6-fluoro-2-methylpyridin-3-yl)benzenesulfonyl]-6-hydroxy-4-oxo-1,4-dihydropyrimidin-1-yl}-2-methylpropyl]benzonitriIe]	0.01 to 10 nM
CCCCc1nc(=O)c(S(=O)(=O)c2ccc(-c3ccccc3C(=O)NC)cc2)c(O)n1[C@@H]1CCc2ccc(C#N)cc21 [Example 548, 4′-({2-butyl-1-[(1R)-6-cyano-2,3-dihydro-1H-inden-1-yl]-6-hydroxy-4-oxo-1,4-dihydropyrimidin-5-y1}sulfonyl)-N-methyl-[1,1′-biphenyl]-2-carboxamide]	10 to 100 nM
CCOCc1nc(=O)c(S(=O)(=O)c2ccc(-c3cccnc3C)cc2)c(O)n1[C@@H](COC)c1cc(F)cc(F)c1 [Example 386, 1-[(1R)-1-(3,5-difluorophenyl)-2-methoxyethyl]-2-(ethoxymethyl)-6-hydroxy-5-[4-(2-methylpyridin-3-yl)benzenesulfonyl]-1,4-dihydropyrimidin-4-one]	0.01 to 10 nM
CCCCc1nc(=O)c(S(=O)(=O)c2ccc(-c3cccnc3F)cc2)c(O)n1[C@@H](CC)c1cccc(C#N)c1 [Example 505, 3-[(1S)-1-{2-butyl-5-[4-(2-fluoropyridin-3-yl)benzenesulfonyl]-6-hydroxy-4-oxo-1,4-dihydropyrimidin-1-yl}propyl]benzonitrile]	0.01 to 10 nM

same assay, conditions: human APJ, cAMP accumulation; read-out: Human APJ cAMP EC50 Potency range

Structure (SMILES)	EC50
COC[C@@H](c1ccccc1)n1c(COC(C)C)nc(=O)c(S(=O)(=O)c2ccc(Br)cc2)c1O [Example 295, 5-(4-bromobenzenesulfonyl)-6-hydroxy-1-[(1R)-2-methoxy-1-phenylethyl]-2-[(propan-2-yloxy)methyl]-1,4-dihydropyrimidin-4-one]	10 to 100 nM
CCOCc1nc(=O)c(S(=O)(=O)c2ccc(-c3ccnc(F)c3C)cc2)c(O)n1[C@@H](CC)c1ccccc1 [Example 307, 2-(ethoxymethyl)-5-[4-(2-fluoro-3-methylpyridin-4-yl)benzenesulfonyl]-6-hydroxy-1-[(1S)-1-phenylpropyl]-1,4-dihydropyrimidin-4-one]	0.01 to 10 nM
CCOCc1nc(=O)c(S(=O)(=O)c2ccc(-c3ccc(F)nc3C)cc2)c(O)n1[C@@H](COC)c1ccccc1 [Example 318, 2-(ethoxymethyl)-5-[4-(6-fluoro-2-methylpyridin-3-yl)benzenesulfonyl]-6-hydroxy-1-[(1R)-2-methoxy-1-phenylethyl]-1,4-dihydropyrimidin-4-one]	0.01 to 10 nM
COc1cccc(OC)c1-n1c(-c2ccc(F)cc2)nc(=O)c(S(=O)(=O)c2ccc(-c3ccncc3C)cc2)c1O [Example 273]	0.01 to 10 nM
CCOCc1nc(=O)c(S(=O)(=O)c2ccc(C3CC3)cc2)c(O)n1[C@H]1CCc2ccccc21 [Example 303, 5-(4-cyclopropylbenzene-sulfonyl)-1-[(1S)-2,3-dihydro-1H-inden-1-yl]-2-(ethoxymethyl)-6-hydroxy-1,4-dihydropyrimidin-4-one]	0.01 to 10 nM
CC[C@@H](c1ccccc1)n1c(C2CCCC2)nc(=O)c(S(=O)(=O)c2ccc(-c3ccc(F)nc3)cc2)c1O [Example 280, 2-cyclopentyl-5-[4-(6-fluoropyridin-3-yl)benzenesulfonyl]-6-hydroxy-1-[(1S)-1-phenylpropyl]-1,4-dihydropyrimidin-4-one]	0.01 to 10 nM

same assay, conditions: human APJ, intracellular cAMP accumulation; read-out: Human APJ cAMP EC50 Potency range

Structure (SMILES)	EC50
CCCCc1nc(=O)c(S(=O)(=O)c2ccc(-c3ccncc3C)cc2)c(O)n1[C@@H](CC)c1cccc(F)c1 [Example 212, 2-butyl-1-[(1S)-1-(3-fluorophenyl)propyl]-6-hydroxy-5-[4-(3-methylpyridin-4-yl)benzenesulfonyl]-1,4-dihydropyrimidin-4-one]	0.01 to 10 nM
CCCc1nc(=O)c(S(=O)(=O)c2ccc(-c3ccncc3C)cc2)c(O)n1[C@@H](COC)c1ccccc1 [Example 175, 6-hydroxy-1-[(1R)-2-methoxy-1-phenylethyl]-5-[4-(3-methylpyridin-4-yl)benzenesulfonyl]-2-propyl-1,4-dihydropyrimidin-4-one]	0.01 to 10 nM
CCCCc1nc(=O)c(S(=O)(=O)c2ccc(-c3ccnc(OC)c3)cc2)c(O)n1-c1c(OC)cccc1OC [Example 43, 2-butyl-1-(2,6-dimethoxyphenyl)-6-hydroxy-5-[4-(2-methoxypyridin-4-yl)benzenesulfonyl]-1,4-dihydropyrimidin-4-one]	0.01 to 10 nM
CCCCc1nc(=O)c(S(=O)(=O)c2ccc(C3CC3)cn2)c(O)n1-c1c(CC)cccc1CC [Example 102, 2-butyl-5-[(5-cyclopropylpyridin-2-yl)sulfonyl]-1-(2,6-diethylphenyl)-6-hydroxy-1,4-dihydropyrimidin-4-one]	0.01 to 10 nM
CCCCc1nc(=O)c(S(=O)(=O)c2ccc(-c3cccc(F)n3)cc2)c(O)n1-c1c(OC)cccc1OC [Example 42, 2-butyl-1-(2,6-dimethoxyphenyl)-5-[4-(6-fluoropyridin-2-yl)benzenesulfonyl]-6-hydroxy-1,4-dihydropyrimidin-4-one]	0.01 to 10 nM
COC[C@@H](c1ccccc1)n1c(CCC(C)C)nc(=O)c(S(=O)(=O)c2ccc(-c3ccc(F)nc3C)cc2)c1O [Example 196, 5-[4-(6-fluoro-2-methylpyridin-3-yl)benzenesulfonyl]-6-hydroxy-1-[(1R)-2-methoxy-1-phenylethyl]-2-(3-methylbutyl)-1,4-dihydropyrimidin-4-one]	0.01 to 10 nM
CCCCc1nc(=O)c(S(=O)(=O)c2ccc(Br)cc2)c(O)n1[C@@H](COC)c1ccccc1 [Example 119, 5-(4-bromobenzenesulfonyl)-2-butyl-6-hydroxy-1-[(1R)-2-methoxy-1-phenylethyl]-1,4-dihydropyrimidin-4-one]	10 to 100 nM
CCCCc1nc(=O)c(S(=O)(=O)c2ccc(-c3cccnc3C)cc2)c(O)n1[C@@H](COC)c1ccccc1 [Example 149, 2-butyl-6-hydroxy-1-[(1R)-2-methoxy-1-phenylethyl]-5-[4-(2-methylpyridin-3-yl)benzenesulfonyl]-1,4-dihydropyrimidin-4-one]	0.01 to 10 nM
CCCCc1nc(=O)c(S(=O)(=O)c2ccc(-c3cncc(F)c3)cc2)c(O)n1[C@@H](COC)c1ccccc1 [Example 132, 2-butyl-5-[4-(5-fluoropyridin-3-yl)benzenesulfonyl]-6-hydroxy-1-[(1R)-2-methoxy-1-phenylethyl]-1,4-dihydropyrimidin-4-one]	0.01 to 10 nM
CCCCc1nc(=O)c(S(=O)(=O)c2ccc(-c3cccnc3C)cc2)c(O)n1-c1c(OC)cccc1OC [Example 60, 2-butyl-1-(2,6-dimethoxyphenyl)-6-hydroxy-5-[4-(2-methylpyridin-3-yl)benzenesulfonyl]-1,4-dihydropyrimidin-4-one]	0.01 to 10 nM
